Values after ≈ are worked out from the molar mass of the structure shown.

The test system of the first series is Toledo. The series is described as follows: Induction of apoptosis in human Toledo cells. In kind it is functional. The settings on record: read-out: LD50 (the source's name).
As for `CN(C)CC[C@H](CSc1ccccc1)Nc1ccc(S(=O)(=O)Nc2nc(Cl)nc3c2CCN(C2CCN(Cc4ccccc4-c4ccc(Cl)cc4)CC2)C3)cc1S(=O)(=O)C(F)(F)F`, the CC50 was determined as 5.37 µM.

For `CN(C)CC[C@H](CSc1ccccc1)Nc1ccc(S(=O)(=O)Nc2nc(C(F)(F)F)nc3c2CCN(C2CCN(Cc4ccccc4-c4ccc(Cl)cc4)CC2)C3)cc1S(=O)(=O)C(F)(F)F`, the CC50 was 3.9 µM.

Turning to `CN(C)CC[C@H](CSc1ccccc1)Nc1ccc(S(=O)(=O)Nc2ncnc3c2CCN(C2CCN(Cc4cc(F)ccc4-c4ccc(Cl)cc4)CC2)C3)cc1S(=O)(=O)C(F)(F)F`, the CC50 amounted to 0.197 µM.

Regarding `CN(C)CC[C@H](CSc1ccccc1)Nc1ccc(S(=O)(=O)NC(=O)c2ccc(N3CCN(Cc4ccccc4-c4ccc(Cl)cc4)CC3)cc2)cc1[N+](=O)[O-]` [ABT 737], the CC50 turned out to be 0.06 µM.

Consider `CN(C)CC[C@H](CSc1ccccc1)Nc1ccc(S(=O)(=O)Nc2ncnc3c2CCN(C2CCN(Cc4cc(F)ccc4-c4ccc(Cl)cc4)CC2)C3=O)cc1S(=O)(=O)C(F)(F)F`, for which the CC50 was over 30 µM.

Regarding `O=[N+]([O-])c1cc(S(=O)(=O)Nc2cccc3cc(N4CCN(Cc5ccccc5-c5ccc(Cl)cc5)CC4)ccc23)ccc1N[C@H](CCN1CCOCC1)CSc1ccccc1`, the CC50 is over 30 µM.

As to `CN(C)CC[C@H](CSc1ccccc1)Nc1ccc(S(=O)(=O)Nc2nnc3n2CCN(C2CCN(Cc4ccccc4-c4ccc(Cl)cc4)CC2)CC3)cc1S(=O)(=O)C(F)(F)F`, the CC50 turned out to be 3.47 µM.

On to `CN(C)CC[C@H](CSc1ccccc1)Nc1ccc(S(=O)(=O)Nc2cccc3cc(N4CCN(Cc5ccccc5-c5ccc(Cl)cc5)CC4)cnc23)cc1[N+](=O)[O-]`, for which the CC50 came to 3.95 µM.

Tested on in a further series: not listed separately
Nature of the series: Solubility of compound in fasted state simulated intestinal fluid.
Details: not given
By solubility is commonly meant the concentration that dissolves in the medium under given conditions. Higher therefore signals a readily soluble substance. Molecule `CN(C)CC[C@H](CSc1ccccc1)Nc1ccc(S(=O)(=O)Nc2nc(Cl)nc3c2CCN(C2CCN(Cc4ccccc4-c4ccc(Cl)cc4)CC2)C3)cc1S(=O)(=O)C(F)(F)F` came in with a solubility of 22 µM (≈ 21.2 µg/mL).

As for `CN(C)CC[C@H](CSc1ccccc1)Nc1ccc(S(=O)(=O)Nc2nc(C(F)(F)F)nc3c2CCN(C2CCN(Cc4ccccc4-c4ccc(Cl)cc4)CC2)C3)cc1S(=O)(=O)C(F)(F)F`, the solubility was 36 µM (≈ 35.9 µg/mL).

Consider `CN(C)CC[C@H](CSc1ccccc1)Nc1ccc(S(=O)(=O)Nc2ncnc3c2CCN(C2CCN(Cc4cc(F)ccc4-c4ccc(Cl)cc4)CC2)C3)cc1S(=O)(=O)C(F)(F)F`, for which the concentration in solution (solubility) was 25 µM (≈ 23.7 µg/mL).

`CN(C)CC[C@H](CSc1ccccc1)Nc1ccc(S(=O)(=O)NC(=O)c2ccc(N3CCN(Cc4ccccc4-c4ccc(Cl)cc4)CC3)cc2)cc1[N+](=O)[O-]` [ABT 737] came in with a solubility of 7 µM (≈ 5.69 µg/mL).

Take `CN(C)CC[C@H](CSc1ccccc1)Nc1ccc(S(=O)(=O)Nc2ncnc3c2CCN(C2CCN(Cc4cc(F)ccc4-c4ccc(Cl)cc4)CC2)C3=O)cc1S(=O)(=O)C(F)(F)F`: the solubility was 63 µM (≈ 60.5 µg/mL).

As to `CN(C)CC[C@H](CSc1ccccc1)Nc1ccc(S(=O)(=O)Nc2nnc3n2CCN(C2CCN(Cc4ccccc4-c4ccc(Cl)cc4)CC2)CC3)cc1S(=O)(=O)C(F)(F)F`, the solubility was 87 µM (≈ 81 µg/mL).

For the molecule `CN(C)CC[C@H](CSc1ccccc1)Nc1ccc(S(=O)(=O)Nc2cccc3cc(N4CCN(Cc5ccccc5-c5ccc(Cl)cc5)CC4)cnc23)cc1[N+](=O)[O-]`, the solubility was 44 µM (≈ 36.8 µg/mL).

In a further series the target is Bcl-2-like protein 1 (Homo sapiens, UniProt Q07817). The series is described as follows: Inhibition of Bcl-xL/BAK (unknown origin) interaction.
Chain of Bcl-2-like protein 1 (Q07817 whole entry): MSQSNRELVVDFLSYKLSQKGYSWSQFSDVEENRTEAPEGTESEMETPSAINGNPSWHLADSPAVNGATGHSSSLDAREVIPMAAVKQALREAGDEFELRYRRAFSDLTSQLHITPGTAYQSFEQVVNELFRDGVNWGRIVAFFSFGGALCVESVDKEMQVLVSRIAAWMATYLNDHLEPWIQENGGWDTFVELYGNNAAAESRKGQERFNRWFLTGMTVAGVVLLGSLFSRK
Details: not given
The IC50 is the concentration that gives 50% inhibition. Read a high IC50 as a need for much substance. On to `CN(C)CC[C@H](CSc1ccccc1)Nc1ccc(S(=O)(=O)Nc2nc(Cl)nc3c2CCN(C2CCN(Cc4ccccc4-c4ccc(Cl)cc4)CC2)C3)cc1S(=O)(=O)C(F)(F)F`, for which the concentration for half-maximal inhibition (IC50) worked out at 0.02 µM.

The molecule `CN(C)CC[C@H](CSc1ccccc1)Nc1ccc(S(=O)(=O)Nc2nc(C(F)(F)F)nc3c2CCN(C2CCN(Cc4ccccc4-c4ccc(Cl)cc4)CC2)C3)cc1S(=O)(=O)C(F)(F)F` gave an IC50 of 0.062 µM.

In the case of `CN(C)CC[C@H](CSc1ccccc1)Nc1ccc(S(=O)(=O)Nc2ncnc3c2CCN(C2CCN(Cc4cc(F)ccc4-c4ccc(Cl)cc4)CC2)C3)cc1S(=O)(=O)C(F)(F)F`, half-maximal inhibition (IC50) was put at 0.074 µM.

Regarding `CN(C)CC[C@H](CSc1ccccc1)Nc1ccc(S(=O)(=O)Nc2ncnc3c2CCN(C2CCN(Cc4cc(F)ccc4-c4ccc(Cl)cc4)CC2)C3=O)cc1S(=O)(=O)C(F)(F)F`, the IC50 turned out to be 0.022 µM.

The target in another series is T1, Apoptosis regulator Bcl-2 (Homo sapiens, UniProt P10415). The series is described as follows: Inhibition of Bcl-2/biotinylated BAK (unknown origin) interaction incubated for 1 hr by surface plasmon resonance analysis.
T1 sequence (P10415 whole entry): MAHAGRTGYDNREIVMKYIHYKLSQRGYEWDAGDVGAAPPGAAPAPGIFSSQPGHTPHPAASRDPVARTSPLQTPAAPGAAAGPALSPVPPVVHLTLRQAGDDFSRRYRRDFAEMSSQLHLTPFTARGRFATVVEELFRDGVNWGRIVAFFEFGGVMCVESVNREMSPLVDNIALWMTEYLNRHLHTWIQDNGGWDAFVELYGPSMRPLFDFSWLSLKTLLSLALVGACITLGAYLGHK
Details: not given
(Surface plasmon resonance follows binding to a sensor surface in real time, without labels.)
For the molecule `CN(C)CC[C@H](CSc1ccccc1)Nc1ccc(S(=O)(=O)Nc2nc(Cl)nc3c2CCN(C2CCN(Cc4ccccc4-c4ccc(Cl)cc4)CC2)C3)cc1S(=O)(=O)C(F)(F)F`, the IC50 was 0.032 µM.

As to `CN(C)CC[C@H](CSc1ccccc1)Nc1ccc(S(=O)(=O)Nc2nc(C(F)(F)F)nc3c2CCN(C2CCN(Cc4ccccc4-c4ccc(Cl)cc4)CC2)C3)cc1S(=O)(=O)C(F)(F)F`, the 50% inhibitory concentration (IC50) came out at 0.046 µM.

`CN(C)CC[C@H](CSc1ccccc1)Nc1ccc(S(=O)(=O)Nc2ncnc3c2CCN(C2CCN(Cc4cc(F)ccc4-c4ccc(Cl)cc4)CC2)C3)cc1S(=O)(=O)C(F)(F)F` displayed an IC50 of 0.033 µM. The IC50 values of the last two molecules are within 1.5-fold of each other.

With `CN(C)CC[C@H](CSc1ccccc1)Nc1ccc(S(=O)(=O)Nc2ncnc3c2CCN(C2CCN(Cc4cc(F)ccc4-c4ccc(Cl)cc4)CC2)C3=O)cc1S(=O)(=O)C(F)(F)F`, the concentration for half-maximal inhibition (IC50) stood at 0.142 µM.

`O=[N+]([O-])c1cc(S(=O)(=O)Nc2cccc3cc(N4CCN(Cc5ccccc5-c5ccc(Cl)cc5)CC4)ccc23)ccc1N[C@H](CCN1CCOCC1)CSc1ccccc1`: the half-maximal inhibitory concentration (IC50) was over 4 µM.

In turn, `CN(C)CC[C@H](CSc1ccccc1)Nc1ccc(S(=O)(=O)Nc2nnc3n2CCN(C2CCN(Cc4ccccc4-c4ccc(Cl)cc4)CC2)CC3)cc1S(=O)(=O)C(F)(F)F` had an IC50 of 0.025 µM.

The molecule `CN(C)CC[C@H](CSc1ccccc1)Nc1ccc(S(=O)(=O)Nc2cccc3cc(N4CCN(Cc5ccccc5-c5ccc(Cl)cc5)CC4)cnc23)cc1[N+](=O)[O-]` yielded an IC50 of 0.068 µM.

The target in a further series is T1, Apoptosis regulator Bcl-2. Nature of the series: Binding affinity to Bcl-2 (unknown origin) by surface plasmon resonance analysis.
Details: not given
In general, Kd refers to a measure of binding affinity in units of concentration. As for `CN(C)CC[C@H](CSc1ccccc1)Nc1ccc(S(=O)(=O)Nc2nc(Cl)nc3c2CCN(C2CCN(Cc4ccccc4-c4ccc(Cl)cc4)CC2)C3)cc1S(=O)(=O)C(F)(F)F`, binding was characterised by a dissociation constant (Kd) of 0.017 µM. This lies in the double-digit nanomolar range.

`CN(C)CC[C@H](CSc1ccccc1)Nc1ccc(S(=O)(=O)Nc2nc(C(F)(F)F)nc3c2CCN(C2CCN(Cc4ccccc4-c4ccc(Cl)cc4)CC2)C3)cc1S(=O)(=O)C(F)(F)F` came in with an equilibrium dissociation constant (Kd) of 0.01 µM.

Molecule `CN(C)CC[C@H](CSc1ccccc1)Nc1ccc(S(=O)(=O)Nc2ncnc3c2CCN(C2CCN(Cc4cc(F)ccc4-c4ccc(Cl)cc4)CC2)C3)cc1S(=O)(=O)C(F)(F)F` had a dissociation constant (Kd) of 0.003 µM.

`CN(C)CC[C@H](CSc1ccccc1)Nc1ccc(S(=O)(=O)Nc2ncnc3c2CCN(C2CCN(Cc4cc(F)ccc4-c4ccc(Cl)cc4)CC2)C3=O)cc1S(=O)(=O)C(F)(F)F` had a Kd of 0.104 µM.

Consider `CN(C)CC[C@H](CSc1ccccc1)Nc1ccc(S(=O)(=O)Nc2nnc3n2CCN(C2CCN(Cc4ccccc4-c4ccc(Cl)cc4)CC2)CC3)cc1S(=O)(=O)C(F)(F)F`, for which the dissociation constant Kd came to 0.005 µM.

(Values after ChEMBL document CHEMBL2321763, “The role of the acidity of N-heteroaryl sulfonamides as inhibitors of bcl-2 family protein-protein interactions” (ACS Med Chem Lett, 2013).)
